From publication PMC10638516 (Acta Pharmaceutica Sinica. B, 2023)
Where two headings read alike, the source gives them in different places.

Tests used:
hD2R [1] = biological target: T1, hD2R (Homo sapiens, UniProt P14416); assay: biochemical; type: binding; conditions: for inhibition at 10 µM: read-out: % inhibition at 10 μmol/L hD2
hD3R [2] = biological target: T2, hD3R (Homo sapiens, UniProt P35462); assay: biochemical; type: binding; conditions: for Ki: Ki hD3, three experiments, means ± SEM
T2 sequence (P35462 whole entry): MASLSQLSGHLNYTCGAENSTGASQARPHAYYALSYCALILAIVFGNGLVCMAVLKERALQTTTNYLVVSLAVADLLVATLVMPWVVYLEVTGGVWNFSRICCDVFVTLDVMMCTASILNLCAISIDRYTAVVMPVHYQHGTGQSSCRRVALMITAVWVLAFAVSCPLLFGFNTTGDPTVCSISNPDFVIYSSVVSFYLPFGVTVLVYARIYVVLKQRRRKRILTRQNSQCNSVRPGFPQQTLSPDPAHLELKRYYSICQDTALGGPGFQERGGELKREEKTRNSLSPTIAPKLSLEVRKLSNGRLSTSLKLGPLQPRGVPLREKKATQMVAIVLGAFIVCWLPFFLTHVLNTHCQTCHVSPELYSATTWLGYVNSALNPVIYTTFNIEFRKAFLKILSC

hERG channel = hERG channel (Homo sapiens, UniProt Q12809); assay: hERG channel automated patch clamp; type: cell-based; conditions: hERG inhibition IC50, patch clamp, tested three times
Chain of hERG channel (Q12809 whole entry): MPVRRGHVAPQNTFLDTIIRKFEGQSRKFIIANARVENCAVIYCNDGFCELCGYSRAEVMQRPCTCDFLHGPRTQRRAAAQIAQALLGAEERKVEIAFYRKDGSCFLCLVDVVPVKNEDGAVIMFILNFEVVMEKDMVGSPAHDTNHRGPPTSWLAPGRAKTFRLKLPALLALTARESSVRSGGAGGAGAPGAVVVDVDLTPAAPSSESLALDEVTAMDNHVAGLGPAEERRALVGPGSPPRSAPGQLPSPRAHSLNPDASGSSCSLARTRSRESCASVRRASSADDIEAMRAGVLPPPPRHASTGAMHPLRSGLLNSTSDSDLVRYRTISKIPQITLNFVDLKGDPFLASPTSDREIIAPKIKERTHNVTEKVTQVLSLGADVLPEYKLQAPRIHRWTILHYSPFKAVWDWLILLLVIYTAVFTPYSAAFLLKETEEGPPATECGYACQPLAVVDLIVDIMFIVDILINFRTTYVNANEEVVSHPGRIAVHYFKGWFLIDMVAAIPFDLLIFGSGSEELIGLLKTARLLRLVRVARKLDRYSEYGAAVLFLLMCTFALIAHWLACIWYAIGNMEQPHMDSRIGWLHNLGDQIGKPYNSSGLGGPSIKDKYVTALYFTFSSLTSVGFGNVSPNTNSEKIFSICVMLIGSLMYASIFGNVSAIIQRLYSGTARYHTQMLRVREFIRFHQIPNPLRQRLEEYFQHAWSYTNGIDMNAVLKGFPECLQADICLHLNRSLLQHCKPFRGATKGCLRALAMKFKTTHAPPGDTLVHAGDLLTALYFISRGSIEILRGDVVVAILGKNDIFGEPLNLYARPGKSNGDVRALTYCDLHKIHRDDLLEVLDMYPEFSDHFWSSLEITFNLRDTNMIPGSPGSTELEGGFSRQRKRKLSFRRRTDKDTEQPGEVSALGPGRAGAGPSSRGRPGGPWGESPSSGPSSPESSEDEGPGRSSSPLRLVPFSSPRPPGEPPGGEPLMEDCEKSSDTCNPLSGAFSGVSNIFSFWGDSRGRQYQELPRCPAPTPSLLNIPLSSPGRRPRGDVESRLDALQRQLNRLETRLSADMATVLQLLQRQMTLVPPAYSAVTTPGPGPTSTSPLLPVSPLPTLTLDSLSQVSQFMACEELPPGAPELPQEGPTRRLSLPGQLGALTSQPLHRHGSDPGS

ICR mice [3] = assay: Spontaneous locomotor test; conditions: compounds 30 mg/kg i.p., RPD 1 mg/kg, 15 min
hD2R [4] = biological target: T1, hD2R; type: cell-based
PC12 cells = assay: CCK8 cytotoxicity test, PC12; type: cell-based; conditions: 24 h
mice = assay: Catalepsy test in mice; type: in vivo, mouse
ICR mice [5] = assay: MK-801-induced hyperactivity
hD3R [6] = biological target: T2, hD3R; assay: ERK1/2 phosphorylation; type: cell-based; conditions: for effect on ERK1/2 phosphorylation mediated by hD3R, compound alone (agonist mode): CHO-hD3R cells, quinpirole at 20 μmol/L
ICR mice [7] = assay: Apomorphine-induced climbing; type: in vivo, mouse; conditions: i.p., apomorphine 1.0 mg/kg s.c.
dopamine D3 receptor = conditions: read-out: D3R Ki; reference modulators of the pERK assay; cited from earlier work
[8] = read-out: % inhibition at 10 μmol/L hD3, 10 μmol/L test compound

T1 sequence (P14416 whole entry): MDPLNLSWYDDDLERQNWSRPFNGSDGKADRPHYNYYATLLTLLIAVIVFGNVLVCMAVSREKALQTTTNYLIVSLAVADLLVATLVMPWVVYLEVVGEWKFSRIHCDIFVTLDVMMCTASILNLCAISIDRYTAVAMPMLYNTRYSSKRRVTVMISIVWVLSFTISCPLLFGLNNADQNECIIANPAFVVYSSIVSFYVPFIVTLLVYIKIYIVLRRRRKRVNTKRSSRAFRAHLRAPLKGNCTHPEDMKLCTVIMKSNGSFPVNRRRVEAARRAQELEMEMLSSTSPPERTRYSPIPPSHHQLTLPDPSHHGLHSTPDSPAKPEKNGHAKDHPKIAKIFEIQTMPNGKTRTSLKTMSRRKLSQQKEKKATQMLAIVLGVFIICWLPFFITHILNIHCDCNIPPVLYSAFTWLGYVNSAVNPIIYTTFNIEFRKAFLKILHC

Row | SMILES | Ki (hD2R [1]) [nM] | inhibition at 10 µM (hD2R [1]) [%] | Ki (hD3R [2]) [nM] | inhibition at 10 µM (hD3R [2]; [8]) [%] | other results
1 | CC(C)n1c2ccccc2c2cc(CNCCCn3ccnc3)ccc21 [3c] | > 10000 | 1.7 ± 9.2 | 665 ± 13.5 | 83.8 ± 10.2 | –
2 | CCn1c2ccccc2c2cc(CNCCCCn3ccnc3)ccc21 [17a] | > 10000 | – | 994 ± 36.6 | 75.6 ± 3.5 | –
3 | CCn1c2ccccc2c2cc(CNCCCn3cnc4ccccc43)ccc21 [17d] | > 10000 | 71.8 ± 3.6 | 1100 ± 115 | – | inhibition at 10 µM (hD3R [2]; read-out: % inhibition at 10 μmol/L hD3): 75 ± 14.5%
4 | CCn1c2ccccc2c2cc(CNCCCn3cnc4cncnc43)ccc21 [17e] | – | 10.6 ± 7.4 | – | – | –
5 | CCn1c2ccccc2c2cc(CNCCCn3cnc4c(Cl)ncnc43)ccc21 [17f] | – | 12.8 ± 7.7 | – | – | –
6 | CCn1c2ccccc2c2cc(CNCCCNC(=O)N(C)C)ccc21 [22a] | – | – | – | 42.1 ± 2.2 | –
7 | CCn1c2ccccc2c2cc(CNCCCNC(=O)c3cc4ccccc4[nH]3)ccc21 [22b] | – | 8.1 ± 3.9 | – | 21.3 ± 8.5 | –
8 | CCn1c2ccccc2c2cc(CNCCCNC(=O)c3nc4ccccc4[nH]3)ccc21 [22c] | – | 22.4 ± 5.7 | – | 32.7 ± 11.4 | –
9 | CCn1c2ccccc2c2cc(CNCCCCNC(=O)c3cc4ccccc4[nH]3)ccc21 [23a] | > 10000 | 30 ± 14.1 | 62.6 ± 8 | 87 ± 2.5 | –
10 | CCn1c2ccccc2c2cc(CNCCCCNC(=O)c3nc4ccccc4[nH]3)ccc21 [23b] | > 10000 | – | 578 ± 85 | 86.7 ± 1.9 | –
11 | CCn1c2ccccc2c2cc(CNCCCCNC(=O)c3cc4ccccn4n3)ccc21 [23c] | > 10000 | – | 45.7 ± 2.2 | 98.4 ± 2 | –
12 | CCn1c2ccccc2c2cc(CNCCCCNC(=O)c3ccc4[nH]cnc4c3)ccc21 [23d] | > 10000 | 2.7 ± 4.3 | 125 ± 17.6 | 98.5 ± 2.3 | –
13 | CCn1c2ccccc2c2cc(CNCCCCNC(=O)c3ccc4[nH]c(=O)[nH]c4c3)ccc21 [23e] | > 10000 | 1.9 ± 10.7 | 99.3 ± 31.9 | 99.2 ± 0.5 | –
14 | CCn1c2ccccc2c2cc(CNCCCCNC(=O)c3ccc4[nH]c(=O)oc4c3)ccc21 [23f] | > 10000 | 5.5 ± 21.5 | 95.1 ± 8.9 | 97.6 ± 0.3 | –
15 | CCn1c2ccccc2c2cc(CNCCCCNC(=O)c3ccc(-c4ccccc4)cc3)ccc21 [23g] | > 10000 | – | 206 ± 2.9 | 102 ± 1.2 | –
16 | CCn1c2ccccc2c2cc(CNCCCCNC(=O)c3ccc(-c4ccc(C(C)=O)cc4)cc3)ccc21 [23h] | > 10000 | 5.2 ± 7.6 | 24.2 ± 4.4 | 105 ± 1.5 | –
17 | CCn1c2ccccc2c2cc(CNCCCCNC(=O)c3ccc(-c4ccccn4)cc3)ccc21 [23i] | > 10000 | 6.5 ± 2.3 | 21.3 ± 4.3 | 101 ± 0.8 | improvement of D3R binding affinity versus the phenyl group (23g) (hD3R [2]): approximately 10 fold
18 | CCn1c2ccccc2c2cc(CNCCCCNC(=O)c3ccc4[nH]c5ccccc5c4c3)ccc21 [23k] | > 10000 | 10.6 ± 3.3 | 145 ± 11.9 | 98.1 ± 0.8 | –
19 | CCn1c2ccccc2c2cc(CNCCCCNC(=O)c3cnc4ccccc4c3)ccc21 [23l] | > 10000 | 9.6 ± 0.1 | 85.7 ± 2.9 | 100 ± 1.3 | –
20 | CCn1c2ccccc2c2cc(CNCCCCNC(=O)c3ccnc4ccccc34)ccc21 [23m] | – | – | – | 63.1 ± 0.2 | –
21 | CCN(CCCCNC(=O)c1cc2ccccc2[nH]1)Cc1ccc2c(c1)c1ccccc1n2CC [31a] | 333 ± 3.6 | 88.1 ± 1.5 | 134 ± 9.6 | 96.2 ± 0.2 | –
22 | CCN(CCCCNC(=O)c1ccc(-c2cccnc2)cc1)Cc1ccc2c(c1)c1ccccc1n2CC [31b] | > 10000 | 36.9 ± 2.1 | 422 ± 18.3 | 78.5 ± 0.3 | –
23 | CCCN(CCCCNC(=O)c1cc2ccccc2[nH]1)Cc1ccc2c(c1)c1ccccc1n2CC [31c] | 301 ± 11.9 | 89.8 ± 2.9 | 448 ± 26.1 | 98.6 ± 0.6 | –

Row | SMILES | Ki (hD2R [1]) [nM] | inhibition at 10 µM (hD2R [1]) [%] | Ki (hD3R [2]) [nM] | inhibition at 10 µM (hD3R [2]; [8]) [%] | other results
24 | CCCN(CCCCNC(=O)c1ccc(-c2cccnc2)cc1)Cc1ccc2c(c1)c1ccccc1n2CC [31d] | > 10000 | 26.8 ± 0.9 | 994 ± 45.3 | 81.3 ± 0.6 | –
25 | CCCN(CCCCNC(=O)c1cc2ccccn2n1)Cc1ccc2c(c1)c1ccccc1n2CC [31e] | > 10000 | 18.6 ± 2.5 | 478 ± 29.4 | 74.8 ± 1.5 | –
26 | Cn1c2c(c3ccccc31)CN(CCCCNC(=O)c1cc3ccccc3[nH]1)CC2 [36a] | > 10000 | 20.9 ± 3.8 | 10.6 ± 4.5 | 97.6 ± 2 | IC50 (hERG channel): 1320 nM; effect on spontaneous locomotion (ICR mice [3]): no influences; effect on ERK1/2 phosphorylation mediated by hD2R, compound alone (agonist mode) (hD2R [4]): weak partial agonism; cytotoxicity in PC12 cells (PC12 cells): significant cytotoxicity at high concentrations; Catalepsy MED i.p. (minimum effective dose) (mice): ≥480.0 mg/kg; Catalepsy peak effect (percent of cataleptic animals) (mice; i.p.): 0.0%; catalepsy under all tested doses (mice; i.p., 23j up to 240 mg/kg, 36a/b/f up to 480 mg/kg): did not elicit catalepsy; inhibition of MK-801-induced hyperactivity at 3 mg/kg (ICR mice [5]; 3 mg/kg i.p.): did not show the inhibition activity; effect on ERK1/2 phosphorylation mediated by hD3R, compound alone (agonist mode) (hD3R [6]): no influence; competitive antagonism of ERK1/2 phosphorylation mediated by D3R (hD3R [6]; in the presence of 20 μmol/L dopamine): dose-dependently inhibit
27 | Cn1c2c(c3ccccc31)CN(CCCCNC(=O)c1cn3nc(Cl)ccc3n1)CC2 [36c] | – | 21.1 ± 9 | – | 66.3 ± 9.1 | –
28 | Cn1c2c(c3ccccc31)CN(CCCCNC(=O)c1cnc3ccccc3c1)CC2 [36d] | – | 15.6 ± 12.9 | – | 42.5 ± 6.8 | –
29 | Cn1c2c(c3ccccc31)CN(CCCCNC(=O)c1ccnc3ccccc13)CC2 [36e] | – | -2 ± 17.4 | – | 68.1 ± 1.9 | –
30 | Cn1c2c(c3ccccc31)CN(CCCCNC(=O)c1ccc(-c3cccnc3)cc1)CC2 [36g] | > 10000 | 29.2 ± 5.8 | 29 ± 3.3 | 83.8 ± 12.7 | –
31 | Cn1c2c(c3ccccc31)CN(CCCCNC(=O)c1ccc3[nH]c4ccccc4c3c1)CC2 [36h] | – | 74.4 ± 3.3 | 19.6 ± 7.3 | 95.5 ± 0.7 | –
32 | Cn1c2c(c3ccccc31)CN(CCCCNC(=O)c1ccc3[nH]c(=O)[nH]c3c1)CC2 [36i] | > 10000 | 38.9 ± 3.8 | 3.7 ± 0.6 | 87.5 ± 6.1 | –
33 | Cn1c2c(c3ccccc31)CN(CCCCNC(=O)c1ccc3[nH]cnc3c1)CC2 [36j] | > 10000 | 27.7 ± 1.4 | 14.2 ± 0.7 | 74.4 ± 8.2 | –
34 | CCn1c2c(c3ccccc31)CN(CCCCNC(=O)c1cc3ccccc3[nH]1)CC2 [36k] | > 10000 | 13.2 ± 7.3 | 15.5 ± 1.8 | 106 ± 2.2 | –
35 | Cn1c2c(c3ccccc31)CCN(CCCCNC(=O)c1cc3ccccc3[nH]1)C2 [42a] | > 10000 | 9.1 ± 16.4 | 6.8 ± 0.8 | 106 ± 1.3 | –
36 | CCn1c2c(c3ccccc31)CCN(CCCCNC(=O)c1cc3ccccc3[nH]1)C2 [42b] | > 10000 | 17.5 ± 1.5 | 12.9 ± 2.1 | 106 ± 3.6 | –
37 | Cn1c2c(c3ccccc31)CCN(CCCCNC(=O)c1ccc3nc[nH]c3c1)C2 [42e] | – | 49.7 ± 1.2 | 203 | 81.5 ± 0.6 | –
38 | CCn1c2c(c3ccccc31)CCN(CCCCNC(=O)c1ccc3nc[nH]c3c1)C2 [42f] | – | 54.1 ± 0.1 | 300 | 80.6 ± 1.1 | –
39 | Cn1c2c(c3ccccc31)CCN(CCCCNC(=O)c1ccc(-c3cccnc3)cc1)C2 [42g] | – | 37.8 ± 1 | – | 69.6 ± 0.8 | –
40 | CCn1c2c(c3ccccc31)CCN(CCCCNC(=O)c1ccc(-c3cccnc3)cc1)C2 [42h] | – | 28.9 ± 0.8 | – | 31.3 ± 0.6 | –
41 | Cn1c2c(c3ccccc31)CCN(CCCCNC(=O)c1ccc3[nH]c(=O)[nH]c3c1)C2 [42i] | – | 37.6 ± 0.2 | 112 | 85.2 ± 0.5 | –
42 | CCn1c2c(c3ccccc31)CCN(CCCCNC(=O)c1ccc3[nH]c(=O)[nH]c3c1)C2 [42j] | – | 48.8 ± 0.7 | 149 | 85.9 ± 0.07 | –
43 | CN(C)C(=O)N[C@H]1CC[C@H](CCN2CCN(c3cccc(Cl)c3Cl)CC2)CC1 [Cariprazine, cariprazine, reference compound] | – | – | – | – | effect on ERK1/2 phosphorylation mediated by hD2R, compound alone (agonist mode) (hD2R [4]): did not exhibit significant effects; inhibition of apomorphine-induced climbing (ICR mice [7]): dose-dependent inhibition; inhibition of MK-801-induced hyperactivity (ICR mice [5]; i.p., MK-801 0.3 mg/kg s.c., 60 min): dose-dependently inhibited
44 | CCCN1CCO[C@@H]2c3cc(O)ccc3OC[C@H]21 [PD128907, reference compound] | – | – | – | – | effect on ERK1/2 phosphorylation mediated by hD2R, compound alone (agonist mode) (hD2R [4]): but not CHO-hD2R cells; Ki (dopamine D3 receptor): 1 nM; effect on ERK1/2 phosphorylation mediated by hD3R, compound alone (agonist mode) (hD3R [6]): full ERK1/2 phosphorylation
45 | c1ccc2c(c1)[nH]c1ccc(CNCCCn3ccnc3)cc12 [compound 8] | – | 33.2 ± 17.5 | – | 54.2 ± 7.7 | –
46 | NCCc1ccc(O)c(O)c1 [dopamine, reference compound] | – | – | – | – | effect on ERK1/2 phosphorylation mediated by hD2R, compound alone (agonist mode) (hD2R [4]): significantly increased
